Measurements reported in patent US20250129328A1, “AN ISOLATED S. SALIVARIUS STRAIN AND ITS USE AS AN ANTIMICROBIAL PRODUCING PROBIOTIC” (priority 2021, published 2025).
Ends that are not written are not given here.

Key:
F. nucleatum DSM15643 = experiment: Well diffusion assay (WDA) of purified nisin peptides; format: cell-based, Fusobacterium nucleatum; set-up: dose or concentration left out as unconfirmed
L. bulgaricus DPC5383 = experiment: Well diffusion assay (WDA) of purified nisin peptides and CFS; format: cell-based, Lactobacillus delbrueckii ssp. bulgaricus; set-up: dose or concentration left out as unconfirmed; details: semi-pure nisin G and pure nisin A
Protocol: The culture was centrifuged at 7,871 g for 20 minutes and cells separated from the supernatant. The cell pellet was resuspended in 300 ml of 70% 2 propanol 0.1% TFA (IPA) and stirred at room temperature for 3-4 hours. The resulting suspension was centrifuged again, and the supernatant retained for purification of the antimicrobial. […] The IPA was removed by rotary evaporation and the sample applied to a 12 ml, 2 g Strata-E C18 SPE column pre-equilibrated (Phenomenex, Cheshire, UK) with methanol and water. The column was washed with 24 ml 30% ethanol and then 24 ml 70% 2-propanol 0.1% TFA. […] The IPA was removed from the C18 SPE IPA eluent by rotary evaporation (Buchi Labortechnik AG; Flawil, Switzerland) and the resulting sample applied to a semi prep Jupiter Proteo (10×250 mm, […], 90 Å) Reversed Phase HPLC column running a 30-50% acetonitrile 0.1% TFA gradient at 2.5 mL/min where buffer A was 0.1% TFA and buffer B was 100% acetonitrile 0.1% TFA. […] Bioactive fractions were pooled and lyophilized using a Genevac lyophiliser (Suffolk, UK).

Substance | Zone of inhibition (area of zone of inhibition minus area of well) (F. nucleatum DSM15643) [mm^2] | Antimicrobial activity, comparison of size of zones of inhibition (in words) (L. bulgaricus DPC5383)
nisin G | 37.7 | less than nisin A
nisin A (ITSISLCTPGCKTGALMGCNMKTATCHCSIHVSK; also: lantibiotic, modified residues and rings not given here; UniProt P13068 24-57, looked up) [prototypical broad spectrum lantibiotic, purified from nisinA®P (Handary) by reversed phase HPLC, reference compound] | 395.8 | –
